Our source for the IC50 values is patent US20240218022A1, “ANTI-VISTA MACROCYCLIC PEPTIDES AND COMPOSITIONS” (BRISTOL-MYERS SQUIBB COMPANY, priority 2022, published 2024).

The IC50 is the concentration at which inhibition is half-maximal.

SMILES strings stand for the structures. Starred links: 1 amine or outer side, 2 acyl side, 3 side chain; linkers in the order of their positions; H or OH if unused. Positions of bridges follow the written chain, without caps; N, C: chain ends. Non-standard residues stand in square brackets, D forms with d. Residues, ends and D or L forms follow the SMILES beside them. ξ: configuration not given here. Phe(4-COOH) = N[C@@H](Cc1ccc(C(=O)O)cc1)C(=O)O; γGlu = O=C(O)[C@H](CCC(=O)[*:2])N[*:1]; βAsp = O=C(O)[C@H](CC(=O)[*:2])N[*:1]; NMeF = CN[C@@H](Cc1ccccc1)C(=O)O; Ile(3ξ) = CCC(C)[C@H](N)C(=O)O; NMeL = CN[C@@H](CC(C)C)C(=O)O; Ahp(2) = CCCCC[C@H](N)C(=O)O; NMeNle = CCCC[C@H](NC)C(=O)O; Tle = CC(C)(C)[C@H](N)C(=O)O; NHexGly = CCCCCCNCC(=O)O; NMeA = CN[C@@H](C)C(=O)O; Nle = CCCC[C@H](N)C(=O)O; Orn = NCCC[C@H](N)C(=O)O; Aun = NCCCCCCCCCCC(=O)O; AEEA = NCCOCCOCC(=O)O

In this test the target is T1, mouse VISTA (mVISTA) (Mus musculus, UniProt Q9D659).
T1 construct: expressed in transfected cells; host or cells: Human embryonic kidney 293T cells
T1 sequence (Q9D659 33-308): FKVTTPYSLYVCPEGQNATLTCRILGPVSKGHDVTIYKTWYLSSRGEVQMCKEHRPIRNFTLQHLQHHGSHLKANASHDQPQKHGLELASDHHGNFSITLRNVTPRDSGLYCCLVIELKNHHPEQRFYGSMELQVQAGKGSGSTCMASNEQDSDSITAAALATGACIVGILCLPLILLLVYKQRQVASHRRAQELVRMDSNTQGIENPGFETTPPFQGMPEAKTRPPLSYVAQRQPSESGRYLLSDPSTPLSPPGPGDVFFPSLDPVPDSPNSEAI
Description: Cell-Based Binding High-Content Assay For mVISTA (HC CBA mVISTA). Conditions: read-out: HC CBA mVISTA IC50. Put shortly: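 This high-content binding assay uses HEK293T cells expressing murine VISTA, measuring displacement of 2 nM biotinylated peptide by fluorescent streptavidin imaging. IC50 values come from four-parameter logistic fitting.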
As for `CCCCCCN1CC(=O)N[C@@H](Cc2ccc(O)cc2)C(=O)N[C@@H](CCCCN)C(=O)N[C@@H](CC(N)=O)C(=O)N[C@@H](CCCN)C(=O)N(C)[C@@H](CCCC)C(=O)N[C@@H](CCCCC)C(=O)N2CCC[C@H]2C(=O)N[C@@H](C(C)(C)C)C(=O)N[C@@H](CC(=O)O)C(=O)N[C@H](C(=O)N[C@@H](CCC(=O)NCCCCCCCCCCC(=O)O)C(=O)O)CSCC(=O)N[C@@H](Cc2ccccc2)C(=O)N[C@@H](Cc2ccc(O)cc2)C(=O)N[C@@H](CC(=O)O)C1=O` [Example 2140] ({CH2CO}-FYD[NHexGly]YKN[Orn][NMeNle][Ahp(2)]P[Tle]DC[γGlu][Aun]-OH; thioether N-14), the IC50 was determined as 0.0419 µM. For the molecule `CCCCCCN1CC(=O)N[C@@H](Cc2ccc(O)cc2)C(=O)N[C@@H](CCCCC)C(=O)N[C@@H](CC(N)=O)C(=O)N[C@@H](CCCN)C(=O)N(C)[C@@H](CCCC)C(=O)N[C@@H](CCCCC)C(=O)N2CCC[C@H]2C(=O)N[C@@H](C(C)(C)C)C(=O)N[C@@H](CC(=O)O)C(=O)N[C@H](C(=O)N[C@@H](CCC(=O)NCCCCCCCCCCC(=O)O)C(=O)O)CSCC(=O)N[C@@H](Cc2ccccc2)C(=O)N[C@@H](Cc2ccc(O)cc2)C(=O)N[C@@H](CC(=O)O)C1=O` [Example 2141] ({CH2CO}-FYD[NHexGly]Y[Ahp(2)]N[Orn][NMeNle][Ahp(2)]P[Tle]DC[γGlu][Aun]-OH; thioether N-14), the half-maximal inhibitory concentration (IC50) was determined as 0.0265 µM. For the molecule `CCCCCCN1CC(=O)N[C@@H](Cc2ccc(O)cc2)C(=O)N[C@@H](CCCCC)C(=O)N[C@@H](CC(N)=O)C(=O)N[C@@H](CCCNC(=N)N)C(=O)N(C)[C@@H](CCCC)C(=O)N[C@@H](CCCCC)C(=O)N2CCC[C@H]2C(=O)N[C@@H](C(C)(C)C)C(=O)N[C@@H](CO)C(=O)N[C@H](C(=O)N[C@@H](CCC(=O)NCCCCCCCCCCC(=O)O)C(=O)O)CSCC(=O)N[C@@H](Cc2ccccc2)C(=O)N[C@@H](Cc2ccc(O)cc2)C(=O)N[C@@H](CC(=O)O)C1=O` [Example 2142] ({CH2CO}-FYD[NHexGly]Y[Ahp(2)]NR[NMeNle][Ahp(2)]P[Tle]SC[γGlu][Aun]-OH; thioether N-14), the IC50 was 0.0325 µM. Regarding `CCCCCCN1CC(=O)N[C@@H](Cc2ccc(O)cc2)C(=O)N[C@@H](CCCCC)C(=O)N[C@@H](CC(N)=O)C(=O)N[C@@H](CCCN)C(=O)N(C)[C@@H](CCCC)C(=O)N[C@@H](CCCCC)C(=O)N2CCC[C@H]2C(=O)N[C@@H](C(C)(C)C)C(=O)N[C@@H](CO)C(=O)N[C@H](C(=O)N[C@@H](CCC(=O)NCCCCCCCCCCC(=O)O)C(=O)O)CSCC(=O)N[C@@H](Cc2ccccc2)C(=O)N[C@@H](Cc2ccc(O)cc2)C(=O)N[C@@H](CC(=O)O)C1=O` [Example 2143] ({CH2CO}-FYD[NHexGly]Y[Ahp(2)]N[Orn][NMeNle][Ahp(2)]P[Tle]SC[γGlu][Aun]-OH; thioether N-14), the IC50 is 0.0294 µM. The same measure for `CCCCCCN1CC(=O)N[C@@H](Cc2ccc(O)cc2)C(=O)N[C@@H](CCCCC)C(=O)N[C@@H](CC(N)=O)C(=O)N[C@@H](CCCN)C(=O)N(C)[C@@H](CCCC)C(=O)N[C@@H](CCCCC)C(=O)N2CCC[C@H]2C(=O)N[C@@H](C(C)(C)C)C(=O)N[C@@H](CO)C(=O)N[C@H](C(=O)N[C@@H](CCC(=O)NCCCCCCCCCCC(=O)O)C(=O)O)CSCC(=O)N[C@@H](Cc2ccccc2)C(=O)N[C@@H](Cc2c[nH]c3ccccc23)C(=O)N[C@@H](CC(=O)O)C1=O` [Example 2144] ({CH2CO}-FWD[NHexGly]Y[Ahp(2)]N[Orn][NMeNle][Ahp(2)]P[Tle]SC[γGlu][Aun]-OH; thioether N-14): 0.039 µM. In the case of `CCCCCCN1CC(=O)N[C@@H](Cc2ccc(O)cc2)C(=O)N[C@@H](CCCC)C(=O)N[C@@H](CC(N)=O)C(=O)N[C@@H](CCCNC(=N)N)C(=O)N(C)[C@@H](CCCC)C(=O)N[C@@H](CCCCC)C(=O)N(C)[C@@H](C)C(=O)N[C@@H](C(C)(C)C)C(=O)N[C@@H](CO)C(=O)N[C@H](C(=O)N[C@@H](CC(=O)NCCOCCOCC(=O)NCCCCCCCCCCC(=O)O)C(=O)O)CSCC(=O)N[C@@H](Cc2ccccc2)C(=O)N[C@@H](Cc2c[nH]c3ccccc23)C(=O)N[C@@H](CC(=O)O)C1=O` [Example 2169] ({CH2CO}-FWD[NHexGly]Y[Nle]NR[NMeNle][Ahp(2)][NMeA][Tle]SC[βAsp][AEEA][Aun]-OH; thioether N-14), the IC50 worked out at 0.0198 µM. The same measure for `CCCCCCN1CC(=O)N[C@@H](Cc2ccc(O)cc2)C(=O)N[C@@H](CCCC)C(=O)N[C@@H](CC(N)=O)C(=O)N[C@@H](CCCNC(=N)N)C(=O)N(C)[C@@H](CCCC)C(=O)N[C@@H](CCCCC)C(=O)N(C)[C@@H](C)C(=O)N[C@@H](C(C)CC)C(=O)N[C@@H](CO)C(=O)N[C@H](C(=O)N[C@@H](CC(=O)NCCOCCOCC(=O)NCCCCCCCCCCC(=O)O)C(=O)O)CSCC(=O)N[C@@H](Cc2ccccc2)C(=O)N[C@@H](Cc2c[nH]c3ccccc23)C(=O)N[C@@H](CC(=O)O)C1=O` (stereo partly shown) [Example 2171] ({CH2CO}-FWD[NHexGly]Y[Nle]NR[NMeNle][Ahp(2)][NMeA][Ile(3ξ)]SC[βAsp][AEEA][Aun]-OH; thioether N-14): 0.0288 µM. Take `CCCCCCN1CC(=O)N[C@@H](Cc2ccc(O)cc2)C(=O)N[C@@H](CCCC)C(=O)N[C@@H](CC(N)=O)C(=O)N[C@@H](CCCNC(=N)N)C(=O)N(C)[C@@H](CCCC)C(=O)N[C@@H](CCCCC)C(=O)N(C)[C@@H](C)C(=O)N[C@@H](C(C)C)C(=O)N[C@@H](CO)C(=O)N[C@H](C(=O)N[C@@H](CC(=O)NCCOCCOCC(=O)NCCCCCCCCCCC(=O)O)C(=O)O)CSCC(=O)N[C@@H](Cc2ccccc2)C(=O)N[C@@H](Cc2c[nH]c3ccccc23)C(=O)N[C@@H](CC(=O)O)C1=O` [Example 2172] ({CH2CO}-FWD[NHexGly]Y[Nle]NR[NMeNle][Ahp(2)][NMeA]VSC[βAsp][AEEA][Aun]-OH; thioether N-14): the IC50 stood at 0.0306 µM.

With `CCCCCCN1CC(=O)N[C@@H](Cc2ccc(O)cc2)C(=O)N[C@@H](CCCC)C(=O)N[C@@H](CC(N)=O)C(=O)N[C@@H](CCCNC(=N)N)C(=O)N(C)[C@@H](CCCC)C(=O)N[C@@H](CCCCC)C(=O)N(C)[C@@H](CCCC)C(=O)N[C@@H](C(C)(C)C)C(=O)N[C@@H](CO)C(=O)N[C@H](C(=O)N[C@@H](CC(=O)NCCOCCOCC(=O)NCCCCCCCCCCC(=O)O)C(=O)O)CSCC(=O)N[C@@H](Cc2ccccc2)C(=O)N[C@@H](Cc2c[nH]c3ccccc23)C(=O)N[C@@H](CC(=O)O)C1=O` [Example 2173] ({CH2CO}-FWD[NHexGly]Y[Nle]NR[NMeNle][Ahp(2)][NMeNle][Tle]SC[βAsp][AEEA][Aun]-OH; thioether N-14), the IC50 amounted to 0.0351 µM.

As for `CCCCCCN1CC(=O)N[C@@H](Cc2ccc(O)cc2)C(=O)N[C@@H](CCCC)C(=O)N[C@@H](CC(N)=O)C(=O)N[C@@H](CCCNC(=N)N)C(=O)N(C)[C@@H](C)C(=O)N[C@@H](CCCCC)C(=O)N2CCC[C@H]2C(=O)N[C@@H](C(C)C)C(=O)N[C@@H](CO)C(=O)N[C@H](C(=O)N[C@@H](CC(=O)NCCOCCOCC(=O)NCCCCCCCCCCC(=O)O)C(=O)O)CSCC(=O)N[C@@H](Cc2ccccc2)C(=O)N[C@@H](Cc2c[nH]c3ccccc23)C(=O)N[C@@H](CC(=O)O)C1=O` [Example 2174] ({CH2CO}-FWD[NHexGly]Y[Nle]NR[NMeA][Ahp(2)]PVSC[βAsp][AEEA][Aun]-OH; thioether N-14), the IC50 was found to be 0.0166 µM. The same measure for `CCCCCCN1CC(=O)N[C@@H](Cc2ccc(O)cc2)C(=O)N[C@@H](CCCC)C(=O)N[C@@H](CC(N)=O)C(=O)N[C@@H](CCCNC(=N)N)C(=O)N[C@@H](Cc2ccc(C(=O)O)cc2)C(=O)N[C@@H](CCCCC)C(=O)N2CCC[C@H]2C(=O)N[C@@H](C(C)C)C(=O)N[C@@H](CO)C(=O)N[C@H](C(=O)N[C@@H](CC(=O)NCCOCCOCC(=O)NCCCCCCCCCCC(=O)O)C(=O)O)CSCC(=O)N[C@@H](Cc2ccccc2)C(=O)N[C@@H](Cc2c[nH]c3ccccc23)C(=O)N[C@@H](CC(=O)O)C1=O` [Example 2176] ({CH2CO}-FWD[NHexGly]Y[Nle]NR[Phe(4-COOH)][Ahp(2)]PVSC[βAsp][AEEA][Aun]-OH; thioether N-14): 0.0198 µM; for `CCCCCCN1CC(=O)N[C@@H](Cc2ccc(O)cc2)C(=O)N[C@@H](CCCC)C(=O)N[C@@H](CC(N)=O)C(=O)N[C@@H](CCCNC(=N)N)C(=O)N(C)[C@@H](Cc2ccccc2)C(=O)N[C@@H](CCCCC)C(=O)N2CCC[C@H]2C(=O)N[C@@H](C(C)C)C(=O)N[C@@H](CO)C(=O)N[C@H](C(=O)N[C@@H](CC(=O)NCCOCCOCC(=O)NCCCCCCCCCCC(=O)O)C(=O)O)CSCC(=O)N[C@@H](Cc2ccccc2)C(=O)N[C@@H](Cc2c[nH]c3ccccc23)C(=O)N[C@@H](CC(=O)O)C1=O` [Example 2177] ({CH2CO}-FWD[NHexGly]Y[Nle]NR[NMeF][Ahp(2)]PVSC[βAsp][AEEA][Aun]-OH; thioether N-14): 0.0384 µM. For `CCCCCCN1CC(=O)N[C@@H](Cc2ccc(O)cc2)C(=O)N[C@@H](CCCC)C(=O)N[C@@H](CC(N)=O)C(=O)N[C@@H](CCCNC(=N)N)C(=O)N(C)[C@@H](CCCC)C(=O)N[C@@H](CCCCC)C(=O)N(C)[C@@H](CC(C)C)C(=O)N[C@@H](C(C)CC)C(=O)N[C@@H](CO)C(=O)N[C@H](C(=O)N[C@@H](CC(=O)NCCOCCOCC(=O)NCCCCCCCCCCC(=O)O)C(=O)O)CSCC(=O)N[C@@H](Cc2ccccc2)C(=O)N[C@@H](Cc2c[nH]c3ccccc23)C(=O)N[C@@H](CC(=O)O)C1=O` (stereo partly shown) [Example 2178] ({CH2CO}-FWD[NHexGly]Y[Nle]NR[NMeNle][Ahp(2)][NMeL][Ile(3ξ)]SC[βAsp][AEEA][Aun]-OH; thioether N-14), the IC50 was 0.0467 µM.
